In test [1] the test system is Y93N in genotype 1a NS5A replicon. As to the kind of experiment: Resistance mutant replicon assay, genotype 1a NS5A Y93N. In kind it is cell-based, HCV. The following applies: Hepatitis C virus, read-out: 1a Y93N (nM). Here is the method:
(§1) Evaluation of cell-based anti-HCV activity: Antiviral potency (EC50) was determined using a Renilla luciferase (RLuc)-based HCV replicon reporter assay. To perform the assay for genotype 1 and 2a JFH-1, stable HCV 1a RLuc replicon cells (harboring a dicistronic genotype 1a H77 replicon that encodes a RLuc reporter), stable HCV lb RLuc replicon cells (harboring a dicistronic genotype 1b Conl replicon that encodes a RLuc reporter), or stable HCV 2a JFH-1 Rluc replicon cells (harboring a dicistronic genotype 2a JFH-1 replicon that encodes a RLuc reporter; with L31 present in NS5A) were dispensed into 384-well plates for EC50 assays. To perform the assay for genotype 2a (with M31 present in NS5A) or 2b, NS5A chimeric genotype 2a JFH-1 replicons that encodes a RLuc-Neo reporter and either genotype 2a J6 strain NS5A gene or genotype 2b MD2b-1 strain NS5A gene (both with M31 present) respectively, were either transiently transfected (t) into Huh-Lunet cells or were established as stably replicating replicon cells (s) is provided. Either cells were dispensed into 384-well plates for EC50 assays. To perform the assay for genotype 3 and 4, NS5A chimeric genotype 1b Conl replicons that encodes a Pi-RLuc reporter and either genotype 3a S52 strain NS5A gene or genotype 4a ED43 strain NS5A gene respectively, were transiently transfected (t) into Huh-Lunet cells, which were subsequently dispensed into 384-well plates. Compounds were dissolved in DMSO at a concentration of 10 mM and diluted in DMSO either manually or using an automated pipeting instrument. Serially 3-fold diluted compounds were either manually mixed with cell culture media and added to the seeded cells or directly added to the cells using an automated instrument. DMSO was used as a negative (solvent; no inhibition) control, and the protease inhibitor ITMN-191 was included at a concentration >100×EC50 as a positive control. 72 hours later, cells were lysed and Renilla luciferase activity quantified as recommended by the manufacturer (Promega-Madison, Wis.). Non-linear regression was performed to calculate EC50 values.
(§2) To determine the antiviral potency (EC50) against resistance mutants, resistance mutations, including M28T, Q30R, Q30H, Q30E, L31M, Y93C, Y93H, and Y93N in genotype 1a NS5A, Y93H and L31V/Y93H in genotype 1b NS5A, and Y93H for in genotype 3a NS5A, were introduced individually into either 1a Pi-Rluc or 1b Pi-Rluc replicons by site directed mutagenesis. Replicon RNA of each resistant mutant was transiently transfected into Huh-7-derived cured-51 cells and antiviral potency was determined on these transfected cells as described above.
In general terms: In antiviral work, replicon cells carry a viral genome segment that copies itself.

For test [2], the system named is Y93H in genotype 1a NS5A replicon. As to the kind of experiment: Resistance mutant replicon assay, genotype 1a NS5A Y93H. The following applies: Hepatitis C virus, read-out: 1a Y93H (nM). In kind it is cell-based, HCV. As for the experimental part:
as §1, §2

In test [3] the test system is stable HCV 1a RLuc replicon cells (genotype 1a H77 replicon). As to the kind of experiment: HCV genotype 1a RLuc replicon reporter assay. In kind it is cell-based. As to conditions: Hepatitis C virus; stable genotype 1a H77 RLuc replicon cells, 72 hours.
Test [4] concerns Q30E in genotype 1a NS5A replicon. Put plainly: Resistance mutant replicon assay, genotype 1a NS5A Q30E. It counts as cell-based, HCV. The following applies: Hepatitis C virus, read-out: 1a Q30E (nM). Here is the method:
as §1, §2

Test [5] relates to NS5A chimeric genotype 1b Con1 replicon with genotype 3a S52 strain NS5A gene. Put plainly: HCV genotype 3a NS5A chimeric replicon assay. It counts as cell-based. As to conditions: Hepatitis C virus, 72 h, read-out: 3a (nM). In short, it runs like this: (§3)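 EC50 derived by non-linear regression of Renilla luciferase signal measured in lysates 72 h after adding 3-fold serial compound dilutions. Replicons: stable genotype 1b Con1 cells; transient Huh-Lunet transfections of NS5A chimeras—4a ED43 or 3a S52 in Con1, 2b MD2b-1 (M31) in JFH-1.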

For test [6], the system named is NS5A chimeric genotype 2a JFH-1 replicon with genotype 2b MD2b-1 strain NS5A gene (M31). As to the kind of experiment: HCV genotype 2b NS5A chimeric replicon assay, stable (s). As to conditions: Hepatitis C virus, 72 h, read-out: 2b (s) (nM). In kind it is cell-based.
In test [7] the test system is stable HCV 1b RLuc replicon cells (genotype 1b Con1 replicon). As to the kind of experiment: HCV genotype 1b RLuc replicon reporter assay. In kind it is cell-based. The following applies: Hepatitis C virus; stable genotype 1b Con1 RLuc replicon cells, 72 hours. In a few lines: as §3
Test [8] relates to Y93H in genotype 3a NS5A replicon. Put plainly: Resistance mutant replicon assay, genotype 3a NS5A Y93H. It counts as cell-based, HCV. The following applies: Hepatitis C virus, read-out: 3a Y93H (nM). Here is the method:
as §1, §2

Test [9] deals with NS5A chimeric genotype 1b Con1 replicon with genotype 4a ED43 strain NS5A gene. As to the kind of experiment: HCV genotype 4a NS5A chimeric replicon assay. It counts as cell-based. As to conditions: Hepatitis C virus, 72 h, read-out: 4a (s) (nM).
In test [10] the test system is NS5A chimeric genotype 2a JFH-1 replicon with genotype 2a J6 strain NS5A gene (M31). As to the kind of experiment: HCV genotype 2a J6 NS5A chimeric replicon assay, transient (t). As to conditions: Hepatitis C virus, 72 h, read-out: 2a J6 (t) (nM). In kind it is cell-based.
Test [11] concerns NS5A chimeric genotype 2a JFH-1 replicon with genotype 2b MD2b-1 strain NS5A gene (M31). As to the kind of experiment: HCV genotype 2b NS5A chimeric replicon assay, transient (t). It counts as cell-based. The following applies: Hepatitis C virus, 72 h, read-out: 2b (t) (nM). Here is the method: as §1
The subject of test [12] is stable HCV 2a JFH-1 Rluc replicon cells (L31 present in NS5A). As to the kind of experiment: HCV genotype 2a JFH-1 RLuc replicon reporter assay. It counts as cell-based. As to conditions: Hepatitis C virus, 72 h, read-out: 2a JFH (nM).

As to `COC(=O)N[C@H](C(=O)N1[C@H](c2ncc(-c3ccc4c(c3)COc3cc5c(ccc6nc([C@@H]7CC[C@H](C)N7C(=O)[C@@H](NC(=O)OC)C7CCOCC7)[nH]c65)cc3-4)[nH]2)C[C@@H]2CCC[C@@H]21)C(C)C` [Comp 8, reference compound], the EC50 is 4.58 nM in [1]; 1.9 nM in [2]; 0.028 nM in test [3]; 0.979 nM in [4]; 0.071 nM in test [5]; 0.113 nM in test [6]. In [7], the EC50 is 0.04 nM.

In the case of `COC(=O)N[C@H](C(=O)N1[C@@H](C)CC[C@H]1c1ncc(-c2ccc3c(c2)COc2cc4c(ccc5nc([C@@H]6C[C@H](C)CN6C(=O)[C@@H](NC(=O)OC)C6CCOCC6)[nH]c54)cc2-3)[nH]1)C(C)C` [Comp 13, reference compound], the EC50 was 2.13 nM in test [1]; 1.07 nM in test [2]; 0.025 nM in [3]; 0.371 nM in test [4]; 0.048 nM in test [6]; 4.4 nM in test [8]. Further, the EC50 in test [9] turned out to be 4.4 nM; in test [7], 0.048 nM.

For `CC[C@H]1C[C@@H](c2ncc(-c3ccc4c(c3)COc3cc5c(ccc6nc([C@@H]7CC[C@H](C)N7C(=O)[C@@H](NC(=O)OC)C(C)C)[nH]c65)cc3-4)[nH]2)N(C(=O)[C@@H](NC(=O)OC)C2C[C@@H](C)O[C@H](C)C2)C1` (stereo partly drawn) [Example AE, Methyl [(1S)-1-[(2R,6R)-2,6-dimethyltetrahydro-2H-pyran-4-yl]-2-{(2S,4S)-4-ethyl-2-[5-(2-{(2S,5S)-1-[N-(methoxycarbonyl)-L-valyl]-5-methylpyrrolidin-2-yl}-1,11-dihydroisochromeno[4′,3′:6,7]naphtho[1,2-d]imidazol-9-yl)-1H-imidazol-2-yl]pyrrolidin-1-yl}-2-oxoethyl]carbamate], the EC50 turned out to be 0.042 nM in test [10]; 1.12 nM in test [1]; 0.038 nM in [11]; 0.23 nM in test [2]; 0.024 nM in test [3]; 0.027 nM in test [5]. For the same molecule, the EC50 came to 6.93 nM in test [8], 0.012 nM in [12], 0.011 nM in [9] and 0.022 nM in test [7].

For the molecule `COC(=O)N[C@H](C(=O)N1[C@@H](C)CC[C@H]1c1ncc(-c2ccc3c(c2)COc2cc4c(ccc5nc([C@@H]6C[C@H](C)CN6C(=O)[C@@H](NC(=O)OC)C6C[C@@H](C)O[C@H](C)C6)[nH]c54)cc2-3)[nH]1)C(C)C` (stereo partly drawn) [Example AV, methyl {(2S)-1-[(2S,5S)-2-(5-{2-[(2S,4S)-1-{(2S)-2-[(2R,6R)-2,6-dimethyltetrahydro-2H-pyran-4-yl]-2-[(methoxycarbonyl)amino]acetyl}-4-methylpyrrolidin-2-yl]-1,11-dihydroisochromeno[4′,3′:6,7]naphtho[1,2-d]imidazol-9-yl}-1H-imidazol-2-yl)-5-methylpyrrolidin-1-yl]-3-methyl-1-oxobutan-2-yl}carbamate], the EC50 in test [10] turned out to be 0.008 nM; in test [1], 1.05 nM; in [11], 0.015 nM; in [2], 0.14 nM; in test [3], 0.036 nM; in test [5], 0.029 nM. The EC50 in test [8] was 2.39 nM; in test [12], 0.011 nM; in [9], 0.013 nM; in test [7] it was 0.036 nM.

`COC(=O)N[C@H](C(=O)N1[C@@H](C)CC[C@H]1c1ncc(-c2ccc3c(c2)COc2cc4c(ccc5nc([C@@H]6CCCN6C(=O)[C@@H](NC(=O)OC)C6C[C@@H](C)O[C@H](C)C6)[nH]c54)cc2-3)[nH]1)C(C)C` (stereo partly drawn) [Example AW, methyl {(2S)-1-[(2S,5S)-2-(5-{2-[(2S)-1-{(2S)-2-[(2R,6R)-2,6-dimethyltetrahydro-2H-pyran-4-yl]-2-[(methoxycarbonyl)amino]acetyl}pyrrolidin-2-yl]-1,11-dihydroisochromeno[4′,3′:6,7]naphtho[1,2-d]imidazol-9-yl}-1H-imidazol-2-yl)-5-methylpyrrolidin-1-yl]-3-methyl-1-oxobutan-2-yl}carbamate]: the EC50 in [10] came out at 0.021 nM; in test [1] it was 1.47 nM; in [11], 0.029 nM; in test [2], 0.704 nM; in test [3], 0.029 nM; in test [5], 0.015 nM. In addition, the EC50 in test [8] stood at 1.51 nM; in [12] it was 0.011 nM; in test [9] it was 0.008 nM; in test [7], 0.07 nM.

As to `COC(=O)N[C@H](C(=O)N1[C@H](c2ncc(-c3ccc4c(c3)COc3cc5c(ccc6nc([C@@H]7CC[C@H](C)N7C(=O)[C@@H](NC(=O)OC)C7C[C@@H](C)O[C@H](C)C7)[nH]c65)cc3-4)[nH]2)C[C@@H]2CCC[C@@H]21)C(C)C` (stereo partly drawn) [Example AY, methyl {(2S)-1-[(2S,3aS,6aS)-2-(5-{2-[(2S,5S)-1-{(2S)-2-[(2R,6R)-2,6-dimethyltetrahydro-2H-pyran-4-yl]-2-[(methoxycarbonyl)amino]acetyl}-5-methylpyrrolidin-2-yl]-1,11-dihydroisochromeno[4′,3′:6,7]naphtho[1,2-d]imidazol-9-yl}-1H-imidazol-2-yl)hexahydrocyclopenta[b]pyrrol-1(2H)-yl]-3-methyl-1-oxobutan-2-yl}carbamate], the EC50 in test [10] was 0.013 nM; in [1], 1.18 nM; in [11], 0.03 nM; in [2], 0.531 nM; in test [3], 0.027 nM; in test [5], 0.023 nM. The EC50 in test [8] worked out at 8.48 nM; in [12] it was 0.018 nM; in test [9] it was 0.011 nM; in [7], 0.028 nM.

As to `COC(=O)N[C@H](C(=O)N1[C@H](c2nc3ccc4cc5c(cc4c3[nH]2)OCc2cc(-c3cnc([C@@H]4CC[C@H](C)N4C(=O)[C@@H](NC(=O)OC)C4C[C@@H](C)O[C@H](C)C4)[nH]3)ccc2-5)C[C@@H]2CCC[C@@H]21)C(C)C` (stereo partly drawn) [Example BI, methyl{(2S)-1-[(2S,3aS,6aS)-2-(9-{2-[(2S,5S)-1-{(2S)-2-[(2R,6R)-2,6-dimethyltetrahydro-2H-pyran-4-yl]-2-[(methoxycarbonyl)amino]acetyl}-5-methylpyrrolidin-2-yl]-1H-imidazol-5-yl}-1,11-dihydroisochromeno[4′,3′:6,7]naphtho[1,2-d]imidazol-2-yl)hexahydrocyclopenta[b]pyrrol-1(2H)-yl]-3-methyl-1-oxobutan-2-yl}carbamate], the EC50 turned out to be 0.022 nM in [10]; 0.466 nM in [1]; 0.184 nM in [2]; 0.012 nM in test [3]; 0.017 nM in [5]; 0.033 nM in test [6]. Besides, the EC50 stood at 3.45 nM in test [8], 0.011 nM in [12], 0.011 nM in test [9] and 0.024 nM in [7].

(Values after patent US20160362416A1, “ANTIVIRAL COMPOUNDS” (Gilead Sciences, Inc., priority 2012, published 2016).)
